The values that follow come from the supplement of paper PMC9549728.

Where a name gives a salt, the structure may show the parent alone. Bounds are passed on as bounds.

Holding throughout (experiment): IC50 (viability, PrestoBlue) (log10 nM)
Conditions in all cases: exposure time: 72 h

Test [1] concerns murine gastric organoid RAS-activated (Kras G12D; Tp53 R172H). On the procedure: (§1)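 Murine gastric corpus organoids (normal uninduced; RAS-activated Kras G12D/Tp53 R172H; diffuse Cdh1/Apc loss; WNT-activated Apc loss/Tp53 R172H) were seeded in Matrigel into pre-spotted 384-well plates. The plates held a 196-compound library at 6.7 nM to 25,004 nM (9 doses) and were incubated 72 h. Viability was read by PrestoBlue fluorescence (560/590 nm). IC50 came from non-linear regression (Prism), reported as log10 IC50 in nM, mean of 3 passages x 2 wells.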

For test [2], the system named is murine gastric organoid WNT-activated (Apc fl/fl; Tp53 R172H). On the procedure: as §1
Test [3] deals with murine gastric organoid diffuse (Cdh1 fl/fl; Apc fl/fl). On the procedure:
as §1

Test [4] deals with murine normal gastric organoid. As to the method: as §1

In the case of `Cc1[nH]c2ccccc2c1CCNCc1ccc(/C=C/C(=O)NO)cc1` [Panobinostat], the “IC50 (log10 nM)” value turned out to be 1.81 in test [1], 3.02 in test [2], 2.82 in test [3] and 3.17 in test [4].
Take `Cc1ccc(NC(=O)c2ccc(CN3CCN(C)CC3)cc2)cc1Nc1nc(-c2cccnc2)cs1` [Masitinib mesylate]: the “IC50 (log10 nM)” value in test [1] came out at 2.38; in test [2], 3.35; in test [3], 4.25; in test [4] it was 3.68.
With `CC[C@]1(O)C[C@H]2CN(CCc3c([nH]c4ccccc34)[C@@](C(=O)OC)(c3cc4c(cc3OC)N(C=O)[C@H]3[C@@](O)(C(=O)OC)[C@H](OC(C)=O)[C@]5(CC)C=CCN6CC[C@]43[C@@H]65)C2)C1` [Vincristine sulfate], the “IC50 (log10 nM)” value amounted to 2.08 in test [1], 2.19 in test [2], 1.89 in test [3] and 1.68 in test [4].
In the case of `C=CCc1ccc(O)c(-c2ccc(O)c(CC=C)c2)c1` [Honokiol], the “IC50 (log10 nM)” value worked out at 4.12 in test [1], 3.87 in test [2], 4.28 in test [3] and 3.97 in test [4].
On the same counts, the results for `CCOc1cc2ncc(C#N)c(Nc3ccc(OCc4ccccn4)c(Cl)c3)c2cc1NC(=O)/C=C/CN(C)C` [Neratinib] are > 4.4, 2.94, 3.13 and 2.48.
On the same counts, the results for `C=CC(=O)Nc1cc2c(Nc3ccc(F)c(Cl)c3)ncnc2cc1OCCCN1CCOCC1` [Canertinib] are 3.85, 2.17, 2.6 and 2.35.
Take `CNC(=O)c1cc(Oc2ccc(NC(=O)Nc3ccc(Cl)c(C(F)(F)F)c3)c(F)c2)ccn1` [Regorafenib]: the “IC50 (log10 nM)” value in test [1] worked out at 4.14; in test [2], 3.86; in test [3], 3.97; in test [4], 3.94.
On the same counts, the results for `O=C(CCCCCCC(=O)Nc1ccccc1)NO` [Vorinostat] are 3.28, 3.67, 3.65 and 3.62.
In the same order, the values of `COc1cc(Nc2ncc(F)c(Nc3ccc4c(n3)N(COP(=O)(O)O)C(=O)C(C)(C)O4)n2)cc(OC)c1OC` [R788 disodium hexahydrate] are 3.21, 2.5, 2.99 and 3.46.
In the same order, the values of `CC(C)c1cc(-c2n[nH]c(=O)n2-c2ccc3c(ccn3C)c2)c(O)cc1O` [Ganetespib] are 1.59, < 0.826, 1.5 and 1.59.
As to `CC(C)[C@H](O)C(=O)N[C@@H](C)C(=O)N[C@@H]1C(=O)N(C)CCc2ccccc21` [Semagacestat], the “IC50 (log10 nM)” value is > 4.4 in test [1], 2.37 in test [2], > 4.4 in test [3] and 4.35 in test [4].
Regarding `C[C@]1(O)C[C@@H](c2nc(-c3ccc4ccc(-c5ccccc5)nc4c3)c3c(N)nccn32)C1` [Linsitinib], the “IC50 (log10 nM)” value in test [1] is < 0.826; in test [2] it was 2.69; in test [3], 3.68; in test [4], 2.84.
As to `Nc1nc(Cl)nc2c1ncn2[C@@H]1O[C@H](CO)[C@@H](O)[C@@H]1F` [Clofarabine], the “IC50 (log10 nM)” value in test [1] came out at 3.04; in test [2], 3.27; in test [3] it was 2.97; in test [4], 3.15.
As for `COC(=O)[C@]12CCC(C)(C)C[C@H]1[C@H]1C(=O)C=C3[C@@]4(C)C=C(C#N)C(=O)C(C)(C)[C@@H]4CC[C@@]3(C)[C@]1(C)CC2` [bardoxolone methyl], the “IC50 (log10 nM)” value in test [1] was determined as 2.38; in test [2], 2.92; in test [3], 3.24; in test [4], 2.61.
On to `Clc1ccc(Nc2nnc(Cc3ccncc3)c3ccccc23)cc1` [Vatalanib], for which the “IC50 (log10 nM)” value is 3.75 in test [1], 3.61 in test [2], 4.26 in test [3] and 3.55 in test [4].
On the same counts, the results for `COc1ccc(-c2cc3c(C)nc(N)nc3n([C@H]3CC[C@H](OCCO)CC3)c2=O)cn1` are 2.17, 2.11, 2 and 2.08.
Turning to `COC(=O)C[C@](O)(CCCC(C)(C)O)C(=O)O[C@@H]1C(OC)=C[C@]23CCCN2CCc2cc4c(cc2[C@H]13)OCO4` [Homoharringtonine], the “IC50 (log10 nM)” value in test [1] was determined as 1.56; in test [2], 0.956; in test [3], 1.82; in test [4] it was 1.91.
In the same order, the values of `COc1cc([C@@H]2c3cc4c(cc3[C@@H](O[C@@H]3O[C@@H]5CO[C@@H](C)O[C@H]5[C@H](O)[C@H]3O)[C@H]3COC(=O)[C@H]23)OCO4)cc(OC)c1O` [Etoposide] are 2.89, 3.07, 3.06 and 2.67.
For `Cn1cnc2c(F)c(Nc3ccc(Br)cc3F)c(C(=O)NOCCO)cc21` [Binimetinib], the “IC50 (log10 nM)” value in test [1] was found to be 2.28; in test [2] it was 2.96; in test [3], 3.03; in test [4] it was 2.09.
For the compound `CC(C)C[C@H](NC(=O)CNC(=O)c1cc(Cl)ccc1Cl)B(O)O` [Ixazomib (MLN9708)], the “IC50 (log10 nM)” value in test [1] came to 2.12; in test [2], 2.6; in test [3], 2.51; in test [4], 2.8.
As to `Nc1ncn([C@H]2C[C@H](O)[C@@H](CO)O2)c(=O)n1` [Decitabine], the “IC50 (log10 nM)” value is > 4.4 in test [1], 3.34 in test [2], 3.85 in test [3] and 2.9 in test [4].
In the same order, the values of `O[C@@H](COc1cccc2ncccc12)CN1CCN([C@@H]2c3ccccc3[C@@H]3[C@H](c4ccccc42)C3(F)F)CC1` [Zosuquidar trihydrochloride] are 4.07, 4.03, 4.02 and 3.88.
With `Cc1c2oc3c(C)ccc(C(=O)N[C@@H]4C(=O)N[C@H](C(C)C)C(=O)N5CCC[C@H]5C(=O)N(C)CC(=O)N(C)[C@@H](C(C)C)C(=O)O[C@@H]4C)c3nc-2c(C(=O)N[C@@H]2C(=O)N[C@H](C(C)C)C(=O)N3CCC[C@H]3C(=O)N(C)CC(=O)N(C)[C@@H](C(C)C)C(=O)O[C@@H]2C)c(N)c1=O` [Actinomycin D], the “IC50 (log10 nM)” value in test [1], in test [2], in test [3] and in test [4] was < 0.826 each time.
As for `CN(N=O)C(=O)N[C@@H](C=O)[C@@H](O)[C@H](O)[C@H](O)CO` [Streptozocin], the “IC50 (log10 nM)” value was > 4.4 in test [1], 4.07 in test [2], > 4.4 in test [3] and 4.39 in test [4].
Take `Cn1nnc2c(C(N)=O)ncn2c1=O` [Temozolomide]: the “IC50 (log10 nM)” value in test [1] is > 4.4; in test [2], 4.02; in test [3], > 4.4; in test [4], 4.37.
